Test results as given in patent US8207172B2 (Bayer Intellectual Property GmbH, priority 2004, dated 2012).
Where a name gives a salt, the structure may show the parent alone.

What was measured:
[1] = system: A431 cells (human epidermoid carcinoma); assay: In vitro tumor cell proliferation assay (Cell Titer-Glo luminescent cell viability), A431; assay type: cell-based; details: A-431, 72 h, 72 hours of drug exposure, ATP luminescence readout, read-out: IC50, anti-proliferative activity (inhibition of cell proliferation)
Excerpt: (§1) In vitro Tumor Cell Proliferation Assay
(§2) The tumor cell proliferation assay used to test the compounds of the present invention involves a readout called Cell Titer-Glow® Luminescent Cell Viability Assay developed by Promega® (Cunningham, B A “A Growing Issue: Cell Proliferation Assays, Modern kits ease quantification of cell growth” The Scientist 2001, 15(13), 26, and Crouch, S P et al., “The use of ATP bioluminescence as a measure of cell proliferation and cytotoxicity” Journal of Immunological Methods 1993, 160, 81-88), that measures inhibition of cell proliferation. Generation of a luminescent signal corresponds to the amount of ATP present, which is directly proportional to the number of metabolically active (proliferating) cells.
(§3) A431cells (human epidermoid carcinoma, ATCC […]) and BT474 (human breast carcinoma, ATCC […]) were plated at a density of 2.5×10^3 cells/well in 96 well black-clear bottom tissue culture plates in RPMI media with 10% Fetal Bovine Serum and incubated at 37° C. Twenty-four hours later, test compounds are added at a final concentration range from as high […] to as low 64 pM depend on the activities of the tested compounds in serial dilutions at a final DMSO concentration of 0.1%. Cells were incubated for 72 hours at 37° C. in complete growth media after addition of the test compound. After 72 hours of drug exposure, the plates were equilibrated to room temperature for approximately 30 min. Then, using a Promega Cell Titer Glo Luminescent® assay kit, lysis buffer containing 100 microliters of the enzyme luciferase and its substrate, luciferin mixture, was added to each well. The plates were mixed for 2 min on orbital shaker to ensure cell lysis and incubated for 10 min at room temperature to stabilize luminescence signal. The samples were read on VICTOR 2 using Luminescence protocol, and analyzed with Analyze5 software to generate IC50 values.

[2] = system: BT474 (human breast carcinoma); assay: In vitro tumor cell proliferation assay (Cell Titer-Glo luminescent cell viability), BT474; assay type: cell-based; details: BT-474, 72 h, BT474 cells, 72 hours of drug exposure, ATP luminescence readout, read-out: IC50, anti-proliferative activity (inhibition of cell proliferation)
Excerpt: as §1, §2, §3

IC50 [1]	IC50 [2]	Compound
≤ 5 µM	≤ 1 µM	CCCN1CCC(Cn2cc3c(n2)CCc2c-3sc3ncnc(Nc4ccc(OCc5cccc(F)c5)c(Cl)c4)c23)CC1 [Example 243, N-{3-chloro-4-[(3-fluorobenzyl)oxy]phenyl}-2-[(1-propylpiperidin-4-yl)methyl]-4,5-dihydro-2H-pyrimido[5′,4′:4,5]thieno[2,3-e]indazol-6-amine]
≤ 5 µM	≤ 1 µM	CN(C)[C@H]1CCN(CCn2cc3c(n2)CCc2c-3sc3ncnc(Nc4ccc(F)c(Cl)c4)c23)C1 [Example 2, N-(3-chloro-4-fluorophenyl)-2-{2-[(3S)-3-(dimethylamino)pyrrolidin 1-yl]ethyl}-4,5-dihydro-2H-pyrimido[5′,4′:4,5]thieno[2,3-e]indazol-6-amine]
≤ 5 µM	≤ 1 µM	O=C(CN1CCOCC1)N1CCC(n2cc3c(n2)CCc2c-3sc3ncnc(Nc4ccc(OCc5cccc(F)c5)c(Cl)c4)c23)CC1 [Example 222, N-{3-chloro-4-[(3-fluorobenzyl)oxy]phenyl}-2-[1-(morpholin-4-ylacetyl)piperidin-4-yl]-4,5-dihydro-2H-pyrimido[5′,4′:4,5]thieno[2,3-e]indazol-6-amine]
≤ 5 µM	≤ 1 µM	CN(C)[C@@H]1CCN(CCn2cc3c(n2)CCc2c-3sc3ncnc(Nc4ccc(OCc5cccc(F)c5)c(Cl)c4)c23)C1 [Example 60, N-{3-chloro-4-[(3-fluorobenzyl)oxy]phenyl}-2-{2-[(3R)-3-(dimethylamino)pyrrolidin-1-yl]ethyl}-4,5-dihydro-2H-pyrimido[5′,4′:4,5]thieno[2,3-e]indazol-6-amine]
≤ 5 µM	≤ 1 µM	Fc1cccc(COc2ccc(Nc3ncnc4sc5c(c34)CCc3nn(CCN4CCCC4)cc3-5)cc2Cl)c1 [Example 65, N-{3-chloro-4-[(3-fluorobenzyl)oxy]phenyl}-2-(2-pyrrolidin-1-ylethyl)-4,5-dihydro-2H-pyrimido[5′,4′:4,5]thieno[2,3-e]indazol-6-amine]
≤ 5 µM	≤ 1 µM	COCCNCCn1cc2c(n1)CCc1c-2sc2ncnc(Nc3ccc(OCc4cccc(F)c4)c(Cl)c3)c12 [Example 59, N-{3-chloro-4-[(3-fluorobenzyl)oxy]phenyl}-2-{2-[(2-methoxyethyl)amino]ethyl}-4,5-dihydro-2H-pyrimido[5′,4′:4,5]thieno[2,3-e]indazol-6-amine]
≤ 5 µM	≤ 1 µM	CS(=O)(=O)CCNCCn1cc2c(n1)CCc1c-2sc2ncnc(Nc3ccc(OCc4ccccn4)c(Cl)c3)c12 [Example 105, N-[3-chloro-4-(pyridin-2-ylmethoxy)phenyl]-2-(2-{[2-(methylsulfonyl)ethyl]amino}ethyl)-4,5-dihydro-2H-pyrimido[5′,4′:4,5]thieno[2,3-e]indazol-6-amine]
≤ 5 µM	≤ 1 µM	CCN1CCC(CCn2cc3c(n2)CCc2c-3sc3ncnc(Nc4ccc(OCc5cccc(F)c5)c(Cl)c4)c23)CC1 [Example 254, N-{3-chloro-4-[(3-fluorobenzyl)oxy]phenyl}-2-[2-(1-ethylpiperidin-4-yl)ethyl]-4,5-dihydro-2H-pyrimido[5′,4′:4,5]thieno[2,3-e]indazol-6-amine]
≤ 50 µM	≤ 5 µM	COc1ccc(Nc2ncnc3sc4c(c23)CCc2nn(CCN3CCN(C)CC3)cc2-4)cc1Cl [Example 52, N-(3-chloro-4-methoxyphenyl)-2-[2-(4-methylpiperazin-1-yl)ethyl]-4,5-dihydro-2H-pyrimido[5′,4′:4,5]thieno[2,3-e]indazol-6-amine]
≤ 5 µM	≤ 1 µM	O=C(Cn1ncc2c1CCc1c-2sc2ncnc(Nc3ccc(OCc4cccc(F)c4)c(Cl)c3)c12)N1CC[C@@H](O)C1 [Example 206, (3R)-1-{[6-({3-chloro-4-[(3-fluorobenzyl)oxy]phenyl}amino)-4,5-dihydro-3H-pyrimido[5′,4′:4,5]thieno[2,3-e]indazol-3-yl]acetyl}pyrrolidin-3-ol]
≤ 50 µM	≤ 1 µM	COCCNC[C@@H](O)Cn1cc2c(n1)CCc1c-2sc2ncnc(Nc3ccc(OCc4cccc(F)c4)c(Cl)c3)c12 [Example 146, (2R)-1-[6-({3-chloro-4-[(3-fluorobenzyl)oxy]phenyl}amino)-4,5-dihydro-2H-pyrimido[5′,4′:4,5]thieno[2,3-e]indazol-2-yl]-3-[(2-methoxyethyl)amino]propan-2-ol]
≤ 5 µM	≤ 1 µM	Fc1cccc(COc2ccc(Nc3ncnc4sc5c(c34)CCc3nn(CCn4ccnc4)cc3-5)cc2Cl)c1 [Example 77, N-{3-chloro-4-[(3-fluorobenzyl)oxy]phenyl}-2-[2-(1H-imidazol-1-yl)ethyl]-4,5-dihydro-2H-pyrimido[5′,4′:4,5]thieno[2,3-e]indazol-6-amine]
≤ 50 µM	≤ 5 µM	NC[C@@H](O)Cn1cc2c(n1)CCc1c-2sc2ncnc(Nc3ccc(OCc4cccc(F)c4)c(Cl)c3)c12 [Example 160, (2R)-1-amino-3-[6-({3-chloro-4-[(3-fluorobenzyl)oxy]phenyl}amino)-4,5-dihydro-2H-pyrimido[5′,4′:4,5]thieno[2,3-e]indazol-2-yl]propan-2-ol trifluoroacetate (salt)]
≤ 50 µM	≤ 1 µM	CNC[C@@H](O)Cn1ncc2c1CCc1c-2sc2ncnc(Nc3ccc(OCc4cccc(F)c4)c(Cl)c3)c12 [Example 166, (2R)-1-[6-({3-chloro-4-[(3-fluorobenzyl)oxy]phenyl}amino)-4,5-dihydro-3H-pyrimido[5′,4′:4,5]thieno[2,3-e]indazol-3-yl]-3-(methylamino)propan-2-ol trifluoroacetate (salt)]
	≤ 1 µM	c1ccc(Cn2ncc3cc(Nc4ncnc5sc6c(c45)CCc4nn(CCN5CCNCC5)cc4-6)ccc32)cc1 [Example 306, N-(1-benzyl-1H-indazol-5-yl)-2-(2-piperazin-1-ylethyl)-4,5-dihydro-2H-pyrimido[5′,4′:4,5]thieno[2,3-e]indazol-6-amine]
	≤ 1 µM	CS(=O)(=O)OCCn1cc2c(n1)CCc1c-2sc2ncnc(Nc3ccc4c(cnn4Cc4ccccc4)c3)c12 [Example 303, 2-{6-[(1-benzyl-1H-indazol-5-yl)amino]-4,5-dihydro-2H-pyrimido[5′,4′:4,5]thieno[2,3-e]indazol-2-yl}ethyl methanesulfonate]
	≤ 1 µM	Fc1cccc(COc2ccc(Nc3ncnc4sc5c(c34)CCc3nn(CCC4CCNCC4)cc3-5)cc2Cl)c1 [Example 247, N-{3-chloro-4-[(3-fluorobenzyl)oxy]phenyl}-2-(2-piperidin-4-ylethyl)-4,5-dihydro-2H-pyrimido[5′,4′:4,5]thieno[2,3-e]indazol-6-amine]
	≤ 5 µM	CC(C)(C)OC(=O)N1CCC(CCn2cc3c(n2)CCc2c-3sc3ncnc(Nc4ccc(OCc5cccc(F)c5)c(Cl)c4)c23)CC1 [Example 246, tert-butyl 4-{2-[6-({3-chloro-4-[(3-fluorobenzyl)oxy]phenyl}amino)-4,5-dihydro-2H-pyrimido[5′,4′:4,5]thieno[2,3-e]indazol-2-yl]ethyl}piperidine-1-carboxylate]
	≤ 5 µM	Fc1ccc(Nc2ncnc3sc4c(c23)CCc2nn(CCBr)cc2-4)cc1Cl [Example 6, 2-(2-bromoethyl)-N-(3-chloro-4-fluorophenyl)-4,5-dihydro-2H-pyrimido[5′,4′:4,5]thieno[2,3-e]indazol-6-amine]
	≤ 1 µM	CN(C)[C@H]1CCN(C[C@@H](O)Cn2cc3c(n2)CCc2c-3sc3ncnc(Nc4ccc(OCc5cccc(F)c5)c(Cl)c4)c23)C1 [Example 153, (2R)-1-[6-({3-chloro-4-[(3-fluorobenzyl)oxy]phenyl}amino)-4,5-dihydro-2H-pyrimido[5′,4′:4,5]thieno[2,3-e]indazol-2-yl]-3-[(3S)-3-(dimethylamino)pyrrolidin-1-yl]propan-2-ol trilfluoroacetate (salt)]
	≤ 1 µM	CN1CCN(CCn2cc3c(n2)CCc2c-3sc3ncnc(Nc4ccc5c(ccn5Cc5ccccc5)c4)c23)CC1 [Example 337, N-(1-benzyl-1H-indol-5-yl)-2-[2-(4-methylpiperazin-1-yl)ethyl]-4,5-dihydro-2H-pyrimido[5′,4′:4,5]thieno[2,3-e]indazol-6-amine]

Compound	IC50 [1]	IC50 [2]
CC(C)(C)[Si](C)(C)OCCn1cc2c(n1)CCc1c-2sc2ncnc(Nc3ccc(OCc4cccc(F)c4)c(Cl)c3)c12 [Example 55, 2-(2-{[tert-butyl(dimethyl)silyl]oxy}ethyl)N-{3-chloro-4-[(3-fluorobenzyl)oxy]phenyl}-4,5-dihydro-2H-pyrimido[5′,4′:4,5]thieno[2,3-e]indazol-6-amine]	≤ 50 µM	≤ 5 µM
